From ChEMBL document CHEMBL3763037 (J Med Chem, 2016) come the findings set out here.

One experiment deals with LoVo. Nature of the experiment: cells. The conditions noted are these: Homo sapiens, 120 h.
The target in experiment [1] is Poly [ADP-ribose] polymerase 1 (Homo sapiens, UniProt P09874). The experiment in a line: Inhibition of human PARP1 using [3H]NAD as substrate after 1 min by microplate scintillation counting analysis.
Experiment [2] is described as follows: Cytotoxicity against BRCA2-deficient human Capan1 cells. Conditions: Homo sapiens, CAPAN-1. The experiment is classed as functional, cell-based, CAPAN-1.
A further experiment concerns the target PARP 1, 2 and 3 (Homo sapiens, UniProt P09874+Q9Y6F1+Q9UGN5). The experiment in a line: Inhibition of PARP in human LoVo cells assessed as inhibition of poly(ADP)-ribose polymerization for 30 mins by fluorescence assay. In kind it is cell-based.

Poly [ADP-ribose] polymerase 1, sequence (P09874 whole entry): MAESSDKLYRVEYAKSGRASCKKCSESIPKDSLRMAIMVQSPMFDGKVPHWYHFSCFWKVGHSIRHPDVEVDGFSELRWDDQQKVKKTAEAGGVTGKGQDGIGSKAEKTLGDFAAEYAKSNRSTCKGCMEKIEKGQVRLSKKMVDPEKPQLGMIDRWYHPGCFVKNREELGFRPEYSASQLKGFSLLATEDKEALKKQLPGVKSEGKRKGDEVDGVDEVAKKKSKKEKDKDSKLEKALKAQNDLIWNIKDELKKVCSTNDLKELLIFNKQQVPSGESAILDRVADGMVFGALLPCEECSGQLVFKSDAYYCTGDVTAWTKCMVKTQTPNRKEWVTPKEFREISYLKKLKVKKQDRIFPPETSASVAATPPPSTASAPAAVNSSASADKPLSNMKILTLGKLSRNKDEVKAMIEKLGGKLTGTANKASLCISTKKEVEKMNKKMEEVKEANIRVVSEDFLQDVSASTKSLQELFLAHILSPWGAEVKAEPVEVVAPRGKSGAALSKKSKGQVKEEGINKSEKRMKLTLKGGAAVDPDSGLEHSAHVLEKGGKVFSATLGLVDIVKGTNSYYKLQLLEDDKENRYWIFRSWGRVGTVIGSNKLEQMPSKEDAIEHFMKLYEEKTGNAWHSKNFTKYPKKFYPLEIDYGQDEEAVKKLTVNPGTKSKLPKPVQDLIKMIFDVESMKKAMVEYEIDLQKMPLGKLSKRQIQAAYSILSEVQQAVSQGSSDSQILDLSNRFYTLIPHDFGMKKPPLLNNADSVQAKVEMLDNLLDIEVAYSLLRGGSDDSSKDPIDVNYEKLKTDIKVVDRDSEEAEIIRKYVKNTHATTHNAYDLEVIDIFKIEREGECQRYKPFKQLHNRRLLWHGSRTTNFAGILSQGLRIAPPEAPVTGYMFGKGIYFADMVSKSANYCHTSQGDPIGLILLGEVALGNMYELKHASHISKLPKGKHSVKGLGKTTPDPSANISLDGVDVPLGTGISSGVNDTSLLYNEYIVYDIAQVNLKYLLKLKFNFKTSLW

As for `CN(C)Cc1cccc(C2Nc3cccc4c(=O)[nH]nc(c34)C2c2ccccc2)c1` (stereo unspecified), halving of growth in the experiment on LoVo (GI50) required 128000 nM. The compound further yielded an IC50 in experiment [1] of 2.63 nM.
Regarding `NC(=O)c1cccc2cn(-c3ccc([C@@H]4CCCNC4)cc3)nc12` [NIRAPARIB], the response in experiment [2] was half-maximal at 650 nM (EC50).
Consider `Cn1nccc1C1Nc2cc(F)cc3c(=O)[nH]nc(c23)C1c1ncnn1C` (stereo unspecified), for which it took 1920 nM to reach a half-maximal effect in experiment [2] (EC50). This compound came in with an IC50 in experiment [1] of 2.88 nM.
`Cn1cnnc1C1c2n[nH]c(=O)c3cccc(c23)NC1c1ccccc1` (stereo unspecified) showed an EC50 in experiment [2] of 4340 nM. This compound also registered a GI50 with LoVo above 400000 nM. The compound further returned an IC50 in experiment [1] of 2.76 nM.
With `Cn1ccnc1C1c2n[nH]c(=O)c3cc(Cl)cc(c23)NC1c1ccccc1` (stereo unspecified), the concentration giving a half-maximal response (EC50) in experiment [2] amounted to 785 nM; on PARP 1, 2 and 3, 121 nM. The GI50 in the experiment on LoVo turned out to be 111000 nM. The same compound registered an IC50 in experiment [1] of 6.18 nM.
The matching figures for `O=c1[nH]nc2c3c(cccc13)NC(c1ccccc1)C2c1ccccc1` (stereo unspecified): 2970 nM, 58.4 nM, 324000 nM and 6.1 nM.
`Cn1ncnc1[C@@H]1c2n[nH]c(=O)c3cccc(c23)N[C@H]1c1ccc(F)cc1`: the concentration for a half-maximal effect (EC50) in experiment [2] stood at 1880 nM; on PARP 1, 2 and 3, 250 nM. In the experiment with LoVo, it took 3260 nM to inhibit growth by half (GI50). Further, 68.9 nM corresponded to half-maximal inhibition in experiment [1] (IC50).
`O=c1[nH]nc2c3c(cccc13)NC(c1ccccn1)C2c1ccccn1` (stereo unspecified): the midpoint of inhibition in experiment [1], the IC50, lay at 108 nM.
Turning to `Cn1ccnc1C1c2n[nH]c(=O)c3cc(F)cc(c23)NC1c1ccc(F)cc1` (stereo unspecified), the EC50 in experiment [2] was 56 nM; on PARP 1, 2 and 3 it was 17 nM. In the experiment with LoVo, this compound yielded a GI50 of 35700 nM. Besides, the IC50 in experiment [1] amounted to 1.87 nM.
In turn, `CC(C)C1c2n[nH]c(=O)c3cccc(c23)NC1c1ccccc1` (stereo unspecified) registered a half-inhibitory concentration (IC50) in experiment [1] of 4140 nM.
`Cn1ncnc1[C@@H]1c2n[nH]c(=O)c3cc(F)cc(c23)N[C@H]1c1ccc(F)cc1` returned an EC50 in experiment [2] of 1140 nM. The same compound yielded a 50% growth inhibitory concentration (GI50) in the experiment with LoVo of 1810 nM.
For the compound `Cn1ncnc1C1c2n[nH]c(=O)c3cc(F)cc(c23)NC1c1cncnc1` (stereo unspecified), the midpoint of inhibition in experiment [1], the IC50, lay at 7.62 nM.
Consider `Cn1ncnc1C1c2n[nH]c(=O)c3cc(F)cc(c23)NC1c1ccc(C#N)cc1` (stereo unspecified), for which the EC50 in experiment [2] was found to be 88 nM. For the same compound, half-maximal inhibition in experiment [1] (IC50) required 3.9 nM.
In experiment [1], `O=c1[nH]nc2c3c(cccc13)NC(c1cccnc1)C2c1cccnc1` (stereo unspecified) returned an IC50 of 17.7 nM.
Turning to `CC(C)c1ccc(C2c3n[nH]c(=O)c4cccc(c34)NC2c2ccc(CN(C)C)cc2)cc1` (stereo unspecified), the GI50 in the experiment with LoVo was found to be 123000 nM. Also, the 50% effective concentration (EC50) on PARP 1, 2 and 3 was 15.2 nM. Also, in experiment [1], the 50% inhibitory concentration (IC50) was determined as 9.59 nM.
Regarding `Cn1ccnc1[C@@H]1c2n[nH]c(=O)c3cc(F)cc(c23)N[C@H]1c1ccc(F)cc1`, the 50% effective concentration (EC50) in experiment [2] is 124 nM; at PARP 1, 2 and 3, 164 nM. In addition, halving of growth in the experiment on LoVo (GI50) required 104 nM. Besides, half-maximal inhibition in experiment [1] (IC50) required 22.4 nM.
In the experiment on LoVo, `O=c1[nH]nc2c3c(cccc13)NC(c1ccc(F)cc1)C2c1nccs1` (stereo unspecified) displayed a GI50 of 106000 nM. The EC50 on PARP 1, 2 and 3 was 24.4 nM. This compound registered a 50% inhibitory concentration (IC50) in experiment [1] of 7.35 nM.
Turning to `Cn1nccc1C1c2n[nH]c(=O)c3cc(F)cc(c23)NC1c1ccc(F)cc1` (stereo unspecified), the concentration for a half-maximal effect (EC50) was 956 nM in experiment [2]; 9.33 nM on PARP 1, 2 and 3. In the experiment on LoVo, this compound had a GI50 above 400000 nM. Further, in experiment [1], the 50% inhibitory concentration (IC50) came out at 1.84 nM.
`O=c1[nH]nc2c3c(cccc13)N[C@@H](c1ccc(CN3CCC3)cc1)[C@@H]2c1ccc(F)cc1`: the EC50 in experiment [2] was 2250 nM; at PARP 1, 2 and 3 it was 11.8 nM. In the experiment with LoVo, it took 3570 nM to inhibit growth by half (GI50). Also, the half-inhibitory concentration (IC50) in experiment [1] came out at 5.6 nM.
In the case of `O=c1[nH]nc2c3c(cccc13)NC(c1ccncc1)C2c1ccncc1` (stereo unspecified), in the experiment with LoVo, the GI50 is above 400000 nM. Further, the IC50 in experiment [1] was determined as 22.4 nM.
Consider `O=c1[nH]nc2c3c(cccc13)NC(c1cccnc1)C2C1CCCNC1` (stereo unspecified), for which the IC50 in experiment [1] is 105 nM.
In the experiment with LoVo, `Cn1ccnc1C1Nc2cccc3c(=O)[nH]nc(c23)C1c1ccccc1` (stereo unspecified) registered a 50% growth inhibitory concentration (GI50) above 400000 nM. Also, the IC50 in experiment [1] was 9.45 nM.
`Cn1ccnc1C1Nc2cccc3c(=O)[nH]nc(c23)C1c1nccn1C` (stereo unspecified): in experiment [1], inhibition was half-maximal at 24.5 nM (IC50).
